ChEMBL document CHEMBL2413072, “Synthesis and in vitro anticancer studies of novel C-2 arylidene congeners of lantadenes” (2013)

Experiments:
Assay type in all cases: functional
SW-620 [1] = assay: Growth inhibition of human SW620 cells by sulforhodamine B assay
LOX IMVI [2] = assay: Growth inhibition of human LOXIMVI cells assessed as cell growth at 10^-4 M by sulforhodamine B assay; details: read-out: Activity
PC-3 = assay: Growth inhibition of human PC3 cells assessed as cell growth at 10^-7 M by sulforhodamine B assay; details: read-out: Activity
OVCAR-3 = assay: Growth inhibition of human OVCAR3 cells assessed as cell growth at 10^-6 M by sulforhodamine B assay; details: read-out: Activity
NCI-H322M [3] = assay: Growth inhibition of human NCI-H322M cells assessed as cell growth at 10^-7 M by sulforhodamine B assay; details: read-out: Activity
BT-549 [4] = assay: Growth inhibition of human BT549 cells by sulforhodamine B assay
KM12 = assay: Growth inhibition of human KM12 cells assessed as cell growth at 10^-8 M by sulforhodamine B assay; details: read-out: Activity
[5] = Growth inhibition of human NCI-ADR-RES cells assessed as cell growth at 10^-6 M by sulforhodamine B assay; details: read-out: Activity
LOX IMVI [6] = assay: Growth inhibition of human LOXIMVI cells assessed as cell growth at 10^-8 M by sulforhodamine B assay; details: read-out: Activity
OVCAR-5 = assay: Growth inhibition of human OVCAR5 cells by sulforhodamine B assay
MDA-MB-468 [7] = assay: Growth inhibition of human MDA-MB-468 cells by sulforhodamine B assay
BT-549 [8] = assay: Growth inhibition of human BT549 cells assessed as cell growth at 10^-7 M by sulforhodamine B assay; details: read-out: Activity
Malme-3M = assay: Growth inhibition of human MALME-3M cells assessed as cell growth at 10^-4 M by sulforhodamine B assay; details: read-out: Activity
MDA-MB-468 [9] = assay: Growth inhibition of human MDA-MB-468 cells assessed as cell growth at 10^-7 M by sulforhodamine B assay; details: read-out: Activity
NCI-H322M [10] = assay: Growth inhibition of human NCI-H322M cells by sulforhodamine B assay
SK-MEL-2 [11] = assay: Growth inhibition of human SK-MEL-2 cells assessed as cell growth at 10^-7 M by sulforhodamine B assay; details: read-out: Activity
UO-31 = assay: Growth inhibition of human UO31 cells assessed as cell growth at 10^-4 M by sulforhodamine B assay; details: read-out: Activity
SW-620 [12] = assay: Growth inhibition of human SW620 cells assessed as cell growth at 10^-4 M by sulforhodamine B assay; details: read-out: Activity
MDA-MB-435 [13] = assay: Growth inhibition of human MDA-MB-435 cells assessed as cell growth at 10^-8 M by sulforhodamine B assay; details: read-out: Activity
[14] = Growth inhibition of human NCI-ADR-RES cells by sulforhodamine B assay
COLO 205 = assay: Growth inhibition of human COLO205 cells assessed as cell growth at 10^-4 M by sulforhodamine B assay; details: read-out: Activity
T47D = assay: Growth inhibition of human T47D cells assessed as cell growth at 10^-8 M by sulforhodamine B assay; details: read-out: Activity
A498 = assay: Growth inhibition of human A498 cells assessed as cell growth at 10^-8 M by sulforhodamine B assay; details: read-out: Activity
SW-620 [15] = assay: Growth inhibition of human SW620 cells assessed as cell growth at 10^-6 M by sulforhodamine B assay; details: read-out: Activity
[16] = Growth inhibition of human NCI-ADR-RES cells assessed as cell growth at 10^-7 M by sulforhodamine B assay; details: read-out: Activity
HOP-92 = assay: Growth inhibition of human HOP92 cells assessed as cell growth at 10^-8 M by sulforhodamine B assay; details: read-out: Activity
MDA-MB-435 [17] = assay: Growth inhibition of human MDA-MB-435 cells assessed as cell growth at 10^-7 M by sulforhodamine B assay; details: read-out: Activity
A549 = assay: Growth inhibition of human A549/ATCC cells assessed as cell growth at 10^-6 M by sulforhodamine B assay; details: read-out: Activity
SK-MEL-28 = assay: Growth inhibition of human SK-MEL-28 cells assessed as cell growth at 10^-6 M by sulforhodamine B assay; details: read-out: Activity
SF-539 = assay: Growth inhibition of human SF539 cells assessed as cell growth at 10^-4 M by sulforhodamine B assay; details: read-out: Activity
SK-MEL-2 [18] = assay: Growth inhibition of human SK-MEL-2 cells assessed as cell growth at 10^-6 M by sulforhodamine B assay; details: read-out: Activity
ACHN = assay: Growth inhibition of human ACHN cells by sulforhodamine B assay
OVCAR-8 = assay: Growth inhibition of human OVCAR8 cells assessed as cell growth at 10^-4 M by sulforhodamine B assay; details: read-out: Activity
CAKI-1 = assay: Growth inhibition of human CAKI-1 cells by sulforhodamine B assay
M14 = assay: Growth inhibition of human M14 cells assessed as cell growth at 10^-8 M by sulforhodamine B assay; details: read-out: Activity
HT-29 = assay: Growth inhibition of human HT-29 cells by sulforhodamine B assay
SR = assay: Growth inhibition of human SR cells assessed as cell growth at 10^-7 M by sulforhodamine B assay; details: read-out: Activity
786-0 = assay: Growth inhibition of human 786-0 cells by sulforhodamine B assay
[19] = read-out: LC50 (the source's name)
[20] = read-out: pLC50 (the source's name) (converted)

Work on `C/C=C(/C)C(=O)O[C@@H]1CC(C)(C)C[C@H]2C3=CC[C@@H]4[C@@]5(C)CC[C@H](O)C(C)(C)[C@@H]5CC[C@@]4(C)[C@]3(C)CC[C@@]12C(=O)O` [Reduced Lantadene A] yielded a GI50 (SW-620 [1]; read-out: GI50) of 2.31 µM, a CC50 (SW-620 [1]; [19]) greater than 100 µM and a TGI (SW-620 [1]; read-out: TGI) of 6.62 µM. For the same molecule, the GI50 (SW-620 [1]; read-out: pGI50 (converted)) was 2.29 µM, the CC50 (SW-620 [1]; [20]) was greater than 100 µM and the TGI (SW-620 [1]; read-out: pTGI (converted)) was 6.61 µM. For the same molecule, the growth at 100 µM (LOX IMVI [2]) was -62%, the growth at 0.1 µM (PC-3) was 88% and the growth at 1 µM (OVCAR-3) was 104%. It also gave a growth at 0.1 µM (NCI-H322M [3]) of 98%, a GI50 (BT-549 [4]; read-out: GI50) of 1.94 µM and a CC50 (BT-549 [4]; [19]) of 8.53 µM. It also gave a TGI (BT-549 [4]; read-out: TGI) of 4.06 µM, a GI50 (BT-549 [4]; read-out: pGI50 (converted)) of 1.95 µM and a CC50 (BT-549 [4]; [20]) of 8.51 µM. The TGI (BT-549 [4]; read-out: pTGI (converted)) was 4.07 µM, the growth at 0.01 µM (KM12) was 104% and the growth at 1 µM [5] was 96%. For the same molecule, the growth at 0.01 µM (LOX IMVI [6]) was 97%, the GI50 (OVCAR-5; read-out: GI50) was 3.38 µM and the CC50 (OVCAR-5; [19]) was 45.5 µM. It also gave a TGI (OVCAR-5; read-out: TGI) of 8.9 µM, a GI50 (OVCAR-5; read-out: pGI50 (converted)) of 3.39 µM and a CC50 (OVCAR-5; [20]) of 45.7 µM. The TGI (OVCAR-5; read-out: pTGI (converted)) was 8.91 µM, the GI50 (MDA-MB-468 [7]; read-out: GI50) was 1.68 µM and the CC50 (MDA-MB-468 [7]; [19]) was 7.86 µM. For the same molecule, the TGI (MDA-MB-468 [7]; read-out: TGI) was 3.64 µM, the GI50 (MDA-MB-468 [7]; read-out: pGI50 (converted)) was 1.7 µM and the CC50 (MDA-MB-468 [7]; [20]) was 7.94 µM. The TGI (MDA-MB-468 [7]; read-out: pTGI (converted)) was 3.63 µM, the growth at 0.1 µM (BT-549 [8]) was 100% and the growth at 100 µM (Malme-3M) was -62%. The growth at 0.1 µM (MDA-MB-468 [9]) was 86%, the GI50 (NCI-H322M [10]; read-out: GI50) was 1.78 µM and the LC50 (50% lethal concentration) (NCI-H322M [10]; read-out: LC50) was 6.74 µM. It also gave a TGI (NCI-H322M [10]; read-out: TGI) of 3.46 µM, a GI50 (NCI-H322M [10]; read-out: pGI50 (converted)) of 1.78 µM and an LC50 (50% lethal concentration) (NCI-H322M [10]; read-out: pLC50 (converted)) of 6.76 µM. The TGI (NCI-H322M [10]; read-out: pTGI (converted)) was 3.47 µM, the growth at 0.1 µM (SK-MEL-2 [11]) was 106% and the growth at 100 µM (UO-31) was -66%. For the same molecule, the growth at 100 µM (SW-620 [12]) was -32%, the growth at 0.01 µM (MDA-MB-435 [13]) was 98% and the GI50 ([14]; read-out: GI50) was 2.17 µM. It also gave a CC50 [14, 19] greater than 100 µM, a TGI ([14]; read-out: TGI) of 5 µM and a GI50 ([14]; read-out: pGI50 (converted)) of 2.19 µM. For the same molecule, the CC50 [14, 20] was greater than 100 µM, the TGI ([14]; read-out: pTGI (converted)) was 5.01 µM and the growth at 100 µM (COLO 205) was 3%. The growth at 0.01 µM (T47D) was 101%, the growth at 0.01 µM (A498) was 79% and the growth at 1 µM (SW-620 [15]) was 90%. It also gave a growth at 0.1 µM [16] of 105%, a growth at 0.01 µM (HOP-92) of 91% and a growth at 0.1 µM (MDA-MB-435 [17]) of 94%. It also gave a growth at 1 µM (A549) of 61%, a growth at 1 µM (SK-MEL-28) of 90% and a growth at 100 µM (SF-539) of -68%. The growth at 1 µM (SK-MEL-2 [18]) was 109%, the GI50 (ACHN; read-out: GI50) was 1.82 µM and the CC50 (ACHN; [19]) was 9.07 µM. The TGI (ACHN; read-out: TGI) was 4.06 µM, the GI50 (ACHN; read-out: pGI50 (converted)) was 1.82 µM and the CC50 (ACHN; [20]) was 9.12 µM. For the same molecule, the TGI (ACHN; read-out: pTGI (converted)) was 4.07 µM, the growth at 100 µM (OVCAR-8) was -39% and the GI50 (CAKI-1; read-out: GI50) was 2.48 µM. For the same molecule, the CC50 (CAKI-1; [19]) was 56.3 µM, the TGI (CAKI-1; read-out: TGI) was 9.08 µM and the GI50 (CAKI-1; read-out: pGI50 (converted)) was 2.45 µM. It also gave a CC50 (CAKI-1; [20]) of 56.2 µM, a TGI (CAKI-1; read-out: pTGI (converted)) of 9.12 µM and a growth at 0.01 µM (M14) of 100%. It also gave a GI50 (HT-29; read-out: GI50) of 2.16 µM, an LC50 (50% cell kill) (HT-29; read-out: LC50) of 8.77 µM and a TGI (HT-29; read-out: TGI) of 4.35 µM. For the same molecule, the GI50 (HT-29; read-out: pGI50 (converted)) was 2.14 µM, the LC50 (50% cell kill) (HT-29; read-out: pLC50 (converted)) was 8.71 µM and the TGI (HT-29; read-out: pTGI (converted)) was 4.37 µM. For the same molecule, the growth at 0.1 µM (SR) was 81%, the GI50 (786-0; read-out: GI50) was 1.81 µM and the CC50 (786-0; [19]) was 6.44 µM. The TGI (786-0; read-out: TGI) was 3.41 µM, the GI50 (786-0; read-out: pGI50 (converted)) was 1.82 µM and the CC50 (786-0; [20]) was 6.46 µM. It also gave a TGI (786-0; read-out: pTGI (converted)) of 3.39 µM.
